Measurements as given in article PMC11476629, “Exploring a Potential Optimization Route for Peptide Ligands of the Sam Domain from the Lipid Phosphatase Ship2” (International Journal of Molecular Sciences, 2024).
Values joined by “and” are separate entries in the source; they are usually repeats but may differ in a detail not shown here. Equal entries are not always repeated. Residues, ends and D or L forms follow the SMILES beside them. No end group written: not given here. *: point of attachment. FITC = O=C1OC2(c3ccc(O)cc3Oc3cc(O)ccc32)c2ccc(NC(=S)*)cc21; Ahx = NCCCCCC(=O)O; βAla = NCCC(=O)O

Tests used:
Ship2-Sam [1] = molecular target: T1, Ship2-Sam (Homo sapiens, UniProt O15357); assay: NMR chemical shift perturbation studies with Ship2-Sam; format: binding; settings: 1D 1H: Ship2-Sam 27 µM, peptide 273 µM; 1H-15N HSQC: Ship2-Sam 20 µM, peptide 200 µM; PBS, 298 K
T1 construct: The Sam (Sterile alpha motif) domain of the lipid phosphatase Ship2 (Ship2-Sam); made in house; host or cells: E. coli
T1 sequence (O15357 1196-1258 limits assumed): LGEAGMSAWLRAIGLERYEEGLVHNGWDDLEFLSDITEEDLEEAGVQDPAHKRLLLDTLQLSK
Procedure: The interaction between diverse PSscan peptides and Ship2-Sam was assessed by NMR chemical shift perturbation (CSP) studies using both 1D [^1H] and 2D [^1H-^15N] HSQC experiments (Figure 4 and Figures S7–S10).
[^1H-^15N] HSQC spectra for chemical shift perturbation studies were acquired with ^15N labeled Ship2-Sam (20 μM concentration) in the absence and presence of PSscan255, PSscan258, and PSscan266 peptides (200 μM concentrations). For these experiments, concentrated peptide stocks in PBS were diluted in protein samples. The pH was checked upon each peptide’s addition and eventually carefully adjusted with NaOH or HCl solutions to avoid pH variations in the NMR samples. Chemical shift perturbation studies with 1D [^1H] NMR experiments were similarly recorded for Ship2-Sam alone (27 μM concentration) and in the presence of PSscan peptides (273 μM concentration). Spectra under identical experimental conditions were recorded for Ship2-Sam alone and following the addition of the control peptides.

[2] = Peptide self-aggregation by 1D 1H NMR at diverse concentrations; format: physicochemical; settings: 1D 1H NMR in PBS/D2O (90/10 v/v), peptide 50-300 µM, constant pH
Procedure: In addition, to better understand results from NMR interaction assays, we evaluated whether peptide self-aggregation phenomena could occur in the peptide concentration range employed. Thus, NMR spectra were recorded for each PSscan peptide at diverse concentrations in the range of 50–300 µM (Figure 5, Figures S13 and S14). As all three peptides are rich in aromatic and positively charged residues, self-aggregation can occur not only through π–π stacking interactions but also through cation–π contacts between diverse peptide units. To better identify the signals of aromatic protons within 1D [^1H] NMR spectra in PBS, hydrogen/deuterium exchange experiments were conducted (Figure 5 and Figure S14). Indeed, an excess of D2O in solution induces the disappearance of HN and other exchangeable exposed protons, while aromatic and side-chain protons remain clearly visible (Figure 5 and Figure S14). When recording NMR spectra of peptides at different concentrations, particular care was also taken to keep the pH at a constant value to avoid undesired chemical shift changes.

PC-3 cells = settings: 50 µM, 4 h, fluorescence (deconvolution) microscopy
Procedure: The FITC-TAT-PSscan255 peptide (50 μM) was added for 4 h to PC-3 cells (5 × 10^4/mL) that were positioned on coverslips inside a Petri dish. Following incubation, cells were first washed three times with PBS and then fixed in 4% paraformaldehyde in PBS for 15 min. Next, cell permeabilization was achieved via treatment with 0.3% Triton-X 100 in PBS for 30 min. After blocking for 15 min with 2% bovine serum albumin, the coverslips were marked with phalloidin-iFluor 594 (Abcam, Milan, Italy), which was diluted 1:1000 for 1 h. After three extra rinses with PBS, the nuclei were stained with Hoechst 33342 (Thermo Fisher Scientific, Milan, Italy), diluted 1:2000, and incubated for 15 min in the dark. Lastly, the coverslips were mounted onto microscope slides with Mowiol (Sigma from Merck Group, Milan, Italy) and permitted to cure for at least 48 h before undergoing microscopy imaging. Images were taken with a Nikon Eclipse Ti2-E inverted research microscope (Nikon Instruments, Melville, NY, USA) using standard phase contrast, epifluorescence microscopy, and deconvolution. Image acquisition was accomplished with an Andor Zyla 4.2+ sCMOS high-sensitivity monochrome camera and managed by Nikon NIS-Elements Advanced Research (AR) image acquisition and analysis software.

Ship2-Sam [3] = molecular target: T1, Ship2-Sam; assay: BLI (BioLayer Interferometry) interaction assay; settings: biotinylated-pegylated PSscan255 immobilized on streptavidin biosensor; Ship2-Sam 20-500 µM; 1:1 Langmuir model, global analysis; read-out: KD for binding to Ship2-Sam
Procedure: The peptide was purchased in the biotinylated–pegylated form (Table S4) and immobilized on a streptavidin-coated biosensor. Kinetic experiments, carried out at diverse Ship2-Sam concentrations in the range of 20–500 µM (Figure S19), provided dose–response signals, allowing the estimation of a KD value equal to (70 ± 40) µM.
For BLI interaction assays, the Sartorius Octet® N1 System and streptavidin (SA)-coated biosensor tips (Sartorius Italy S.r.l., Grassina-Bagno a Ripoli (FI), Italy) were employed. SA biosensor tips were first hydrated in 1X PBS buffer; then, to achieve ligand immobilization, the tips were dipped, for 300 sec with 1000 rpm agitation, into 4 µL of biotinylated–pegylated PSscan255 solution (50 µg/mL). Following peptide loading, each tip was placed in contact, for 300 s with a 1000 rpm agitation speed, with 4 µL of Ship2-Sam protein at several concentrations (20, 50, 100, 300, and 500 µM). All mathematical manipulations were handled by the Octet Analysis Studio 12.2 software from Sartorius. A 1:1 Langmuir binding model was used for data fitting, and the KDs were obtained through the global analysis mode.

[4] = Serum stability in FBS (RP-HPLC); format: in vitro ADME; settings: 25% fetal bovine serum, 25% FBS, 37 °C, peptide 80 µM, RP-HPLC UV peak area, average of two assays
Procedure: The PSscan255 peptide was mixed with 25% fetal bovine serum (FBS, from Merck group, Milan, Italy), previously incubated at 37 °C for 15 min, to obtain a peptide concentration equal to 80 µM in the end. These mixtures were kept at 37 °C and, at several time intervals (0, 1, 2, 3, 4, 5, 17, and 19 h), aliquots of the incubating solutions (50 µL) were quenched by using 15% trifluoroacetic acid (TFA) (50 µL) and then incubated at 2 °C for 15 min. Next, serum proteins were discarded by centrifugation (15 min at 3000 rpm), and samples were subjected to reverse-phase high-performance liquid chromatography (RP-HPLC). RP-HPLC runs were conducted with an HPLC LC-4000 series (Jasco) equipped with a UV detector by using a C18-Kinetek column (Phenomenex, Milan, Italy). Gradient elution was conducted at 25 °C; the gradient started with buffer A, consisting of water with 0.1% TFA. Then buffer B, consisting of acetonitrile with 0.1% TFA, was added from 5 to 70% in 20 min. The peak areas were integrated at diverse time lapses. Two assays were performed, and data points represent average values over the two experiments.

PSscan255 = molecular target: T2, PSscan255 (synthetic construct, also: biotinylated and pegylated, positions not given here); assay: BLI
T2 chain: KREWYKFLANKRIAY

CSCC[C@H](NC(=O)[C@H](Cc1ccccc1)NC(=O)[C@H](CCCCN)NC(=O)[C@H](CC(=O)O)NC(=O)[C@H](CCC(=O)O)NC(=O)[C@H](CCCNC(=N)N)NC(=O)[C@H](CCCNC(=N)N)NC(=O)[C@@H](NC(=O)[C@@H]1CCCN1C(=O)CNC(C)=O)[C@@H](C)O)C(=O)N[C@@H](Cc1ccc(O)cc1)C(=O)N[C@@H](Cc1ccccc1)C(N)=O [CTRL, reference compound] (Ac-GPTRREDKFMYF-NH2)
Interaction with Ship2-Sam by chemical shift perturbation (Ship2-Sam [1]): did not reveal high-affinity binding

CC[C@H](C)[C@H](NC(=O)[C@H](CCCNC(=N)N)NC(=O)[C@H](CCCCN)NC(=O)[C@H](CC(N)=O)NC(=O)[C@H](C)NC(=O)[C@H](CCSC)NC(=O)[C@H](Cc1ccccc1)NC(=O)[C@H](CCCCN)NC(=O)[C@H](Cc1ccc(O)cc1)NC(=O)[C@H](Cc1c[nH]c2ccccc12)NC(=O)[C@H](CCC(=O)O)NC(=O)[C@H](CCCNC(=N)N)NC(=O)[C@H](CCSC)NC(C)=O)C(=O)N[C@@H](C)C(=O)N[C@@H](Cc1ccc(O)cc1)C(N)=O [PSscan266] (Ac-MREWYKFMANKRIAY-NH2)
Interaction with Ship2-Sam by chemical shift perturbation (Ship2-Sam [1]): weak interactions | Self-aggregation [2]: could be affected by a certain amount of self-aggregation

CC[C@H](C)[C@H](NC(=O)[C@H](CCCNC(=N)N)NC(=O)[C@H](CCCCN)NC(=O)[C@H](CC(N)=O)NC(=O)[C@H](C)NC(=O)[C@H](CC(C)C)NC(=O)[C@H](Cc1ccccc1)NC(=O)[C@H](CCCCN)NC(=O)[C@H](Cc1ccc(O)cc1)NC(=O)[C@H](Cc1c[nH]c2ccccc12)NC(=O)[C@H](CCC(=O)O)NC(=O)[C@H](CCCNC(=N)N)NC(=O)[C@H](CCCCN)NC(=O)CNC(=O)CNC(=O)[C@H](CCC(N)=O)NC(=O)[C@@H]1CCCN1C(=O)[C@@H]1CCCN1C(=O)[C@H](CCCNC(=N)N)NC(=O)[C@H](CCCNC(=N)N)NC(=O)[C@H](CCCNC(=N)N)NC(=O)[C@H](CCC(N)=O)NC(=O)[C@H](CCCNC(=N)N)NC(=O)[C@H](CCCNC(=N)N)NC(=O)[C@H](CCCCN)NC(=O)[C@H](CCCCN)NC(=O)[C@H](CCCNC(=N)N)NC(=O)CNC(=O)CCNC(=O)CCCCCNC(=S)Nc1ccc2c(c1)C(=O)OC21c2ccc(O)cc2Oc2cc(O)ccc21)C(=O)N[C@@H](C)C(=O)N[C@@H](Cc1ccc(O)cc1)C(N)=O [FITC-TAT-PSscan255] ({FITC-Ahx-βAla}-GRKKRRQRRRPPQGGKREWYKFLANKRIAY-NH2)
Cellular localization after uptake (PC-3 cells): positioned in the cytoplasm

CC[C@H](C)[C@H](NC(=O)[C@H](CCCNC(=N)N)NC(=O)[C@H](CCCCN)NC(=O)[C@H](CC(N)=O)NC(=O)[C@H](C)NC(=O)[C@H](CC(C)C)NC(=O)[C@H](Cc1ccccc1)NC(=O)[C@H](CCCCN)NC(=O)[C@H](Cc1ccc(O)cc1)NC(=O)[C@H](Cc1c[nH]c2ccccc12)NC(=O)[C@H](CCC(=O)O)NC(=O)[C@H](CCCNC(=N)N)NC(=O)[C@H](CCCCN)NC(C)=O)C(=O)N[C@@H](C)C(=O)N[C@@H](Cc1ccc(O)cc1)C(N)=O [PSscan255] (Ac-KREWYKFLANKRIAY-NH2)
Kd (Ship2-Sam [3]): ~70 µM and 70 µM | remaining at 5 h, 80 µM ([4]; 5 h, read-out: Peptide recovered after incubation with FBS): 80% | remaining at 19 h, 80 µM ([4]; 19 h, read-out: Peptide not degraded after incubation with FBS): 50%

CC[C@H](C)[C@H](NC(=O)[C@H](CCCNC(=N)N)NC(=O)[C@H](CCCCN)NC(=O)[C@H](CC(N)=O)NC(=O)[C@H](C)NC(=O)[C@H](CCSC)NC(=O)[C@H](Cc1ccccc1)NC(=O)[C@H](CCCCN)NC(=O)[C@H](Cc1ccc(O)cc1)NC(=O)[C@H](Cc1c[nH]c2ccccc12)NC(=O)[C@H](CC(=O)O)NC(=O)[C@H](CCCNC(=N)N)NC(=O)[C@H](CCCCN)NC(C)=O)C(=O)N[C@@H](C)C(=O)N[C@@H](Cc1ccc(O)cc1)C(N)=O [PSscan258] (Ac-KRDWYKFMANKRIAY-NH2)
Interaction with Ship2-Sam by chemical shift perturbation (Ship2-Sam [1]): weakest

B1: Ship2-Sam Sam (protein)
chain: ASGLGEAGMSAWLRAIGLERYEEGLVHNGWDDLEFLSDITEEDLEEAGVQDPAHKRLLLDTLQLSK
Kd (PSscan255): 70 µM
